From publication PMC12040169 (PLOS Biology, 2025)

Experiment: in vitro
Details: human, hela cells, % viability

First: O=C1CC(N2CCN(Cc3ccc4c(c3)OCO4)CC2)C(=O)N1c1ccc(Br)cc1 (stereo not drawn) [CBK074544]
Second: O=S(=O)(Cc1ccc(Cl)cc1)N1CCN(Cc2ccc3c(c2)OCO3)CC1 [CBK074827]
The viability at 28.5 h, 10 µM of the first is lower: 89.9% for the first, 101% for the second.

Going from `CCS(=O)(=O)N1CCN(Cc2ccc3c(c2)OCO3)CC1` [CBK074545] to `O=S(=O)(c1cc(Cl)sc1Cl)N1CCN(Cc2ccc3c(c2)OCO3)CC1` [CBK074743], the viability at 28.5 h, 10 µM rises from 92.2% to 92.6%.

First: O=C(NCc1ccccc1)c1ccc(NCc2ccccc2)c([N+](=O)[O-])c1 [CBK074547]
Second: c1ccc(CNc2nnc(-c3ccccc3)s2)cc1 [CBK074928]
The viability at 28.5 h, 10 µM of the first is higher: 92.9% for the first, 87.7% for the second.

First: Nc1nc(NCCc2ccccc2)nc(-c2cc(Cl)ccc2O)n1 [CBK074551]
Second: CCCc1[nH]nc(O)c1-c1cccc2ccccc12 [CBK075125]
The viability at 28.5 h, 10 µM of the first is lower: 91.8% for the first, 94% for the second.

Going from `CCOC(=O)C1CCCN(Cc2ccc3c(c2)OCO3)C1` (stereo not drawn) [CBK074569] to `O=S1(=O)CCN(Cc2ccc3c(c2)OCCCO3)CC1` [CBK074831], the viability at 28.5 h, 10 µM rises from 97.7% to 101%.

Compared with `CS(=O)(=O)N(CC(=O)N1CCN(Cc2ccc3c(c2)OCO3)CC1)c1cccc(F)c1` [CBK074572], `O=C(CN1C(=O)c2ccccc2C1=O)N1CCN(Cc2ccc3c(c2)OCO3)CC1` [CBK074846] is lower in viability at 28.5 h, 10 µM: 102% for the first, 97.3% for the second.

Going from `C=CCOc1c(Br)cc(CNc2cccc(C(=O)O)c2)cc1OC` [CBK074581] to `COc1cc(CNc2ccc(N3CCCCC3)cc2)cc(Cl)c1OCc1cccs1` [CBK074586], the viability at 28.5 h, 10 µM rises from 97.3% to 101%.

First: COc1ccc(-c2cc(-c3c(O)ccc4c(C)cc(=O)oc34)nc(N)n2)cc1OC [CBK074619]
Second: COc1ccc(CCNc2ccccc2[N+](=O)[O-])cc1OC [CBK074819]
The viability at 28.5 h, 10 µM of the first is lower: 85% for the first, 104% for the second.

First: COc1ccc(C(=O)CN2CCN(CCN3C(=O)c4cccc5cccc(c45)C3=O)CC2)cc1 [CBK074628]
Second: O=C1c2cccc3cccc(c23)C(=O)N1CCN1CCN(CC(O)COc2ccc3c(c2)OCO3)CC1 (stereo not drawn) [CBK074849C]
The viability at 28.5 h, 10 µM of the first is lower: 75.7% for the first, 87.4% for the second.

Compared with `O=C(CN1CCCN(c2ncc(C(F)(F)F)cc2Cl)CC1)Nc1c(F)cccc1F` [CBK074636], `O=C(CN1CCN(c2ccc(C(F)(F)F)cn2)CC1)Nc1ccc2c(c1)OCO2` [CBK074680] is higher in viability at 28.5 h, 10 µM: 92.5% for the first, 102% for the second.

Compared with `OC(CNCCNc1nccc(C(F)(F)F)n1)Cn1ccc2ccccc21` (stereo not drawn) [CBK074642], `OC(CSc1ccccc1)CN1CCC(Nc2nccc(C(F)(F)F)n2)CC1` (stereo not drawn) [CBK074648] is lower in viability at 28.5 h, 10 µM: 106% for the first, 94.5% for the second.

Going from `OC(COc1ccc2c(c1)OCO2)CN1CCCN(c2nc3ccc(Cl)cc3s2)CC1` (stereo not drawn) [CBK074646] to `O=C(CN1CCN(c2nc3cc(Cl)ccc3s2)CC1)c1ccc2c(c1)OCCCO2` [CBK074737], the viability at 28.5 h, 10 µM falls from 102% to 96.6%.

First: OC(CNCc1ccc2c(c1)OCO2)COc1ccc(Cl)c(Cl)c1 (stereo not drawn) [CBK074649]
Second: OC(CNCc1ccc2c(c1)OCO2)CSc1ccccc1 (stereo not drawn) [CBK074684]
The viability at 28.5 h, 10 µM of the first is lower: 89.3% for the first, 101% for the second.

Going from `O=S(=O)(NCCCN1CCN(Cc2ccccc2)CC1)c1cccc(Cl)c1Cl` [CBK074655] to `O=S(=O)(CCN1CCN(Cc2ccccc2)CC1)c1ccc(F)cc1` [CBK074809], the viability at 28.5 h, 10 µM falls from 114% to 108%.

Compared with `COc1ccc(CCNc2ccc(C(F)(F)F)cc2[N+](=O)[O-])cc1OC` [CBK074656], `COc1ccc([C@@]23CC[C@@H](NC(=O)c4ccc(F)c(C(F)(F)F)c4)C[C@@H]2N(C)CC3)cc1OC` [CBK074967T] is higher in viability at 28.5 h, 10 µM: 87.4% for the first, 93.6% for the second.

Going from `OC(CSc1ccccc1)CN1CCN(c2nc(-c3ccccc3)ns2)CC1` (stereo not drawn) [CBK074677C] to `Cc1ccc(OCC(O)CN2CCN(c3nc(-c4ccccc4)ns3)CC2)c([N+](=O)[O-])c1` (stereo not drawn) [CBK074696], the viability at 28.5 h, 10 µM falls from 110% to 95.3%.

Going from `CC(C(=O)c1ccc(-c2ccccc2F)cc1)N1CCN(c2ccc(C#N)cc2)CC1` (stereo not drawn) [CBK074706] to `OC(COCc1ccccc1)CN1CCN(c2ccccc2F)CC1` (stereo not drawn) [CBK074851C], the viability at 28.5 h, 10 µM rises from 92% to 92.6%.

Going from `OC(CN1CCN(c2ccc(C(F)(F)F)cn2)CC1)c1ccc2c(c1)OCCO2` (stereo not drawn) [CBK074707] to `OC(CN1CCN(Cc2ccc3c(c2)OCO3)CC1)c1ccccc1` (stereo not drawn) [CBK074759], the viability at 28.5 h, 10 µM falls from 104% to 82.8%.

First: Cc1ccc(Oc2ncccc2NC(=O)CN2CCC(NC(=O)c3ccccc3)CC2)c2c1CCC2 [CBK074715]
Second: O=C(CNC1CCN(Cc2ccccc2)CC1)Nc1ccc(Cl)cc1C(=O)c1ccccc1Cl [CBK074770]
The viability at 28.5 h, 10 µM of the first is higher: 112% for the first, 107% for the second.

Going from `O=C(NC1CCN(Cc2c(F)cccc2Cl)CC1)C1CCN(C(=O)OCc2ccccc2)CC1` [CBK074720] to `O=C(CN1CCN(Cc2ccccc2)CC1)Nc1ccc(C(F)(F)F)cc1Cl` [CBK074781], the viability at 28.5 h, 10 µM falls from 108% to 103%.

Compared with `O=S(=O)(c1ccc(F)cc1F)N1CCN(Cc2ccc3c(c2)OCO3)CC1` [CBK074744], `O=C(O)c1ccccc1C(=O)N1CCN(Cc2ccc3c(c2)OCO3)CC1` [CBK074751] is higher in viability at 28.5 h, 10 µM: 91.7% for the first, 97.9% for the second.

First: O=C(Nc1cccc2ccccc12)N1CCN(Cc2ccc3c(c2)OCO3)CC1 [CBK074747]
Second: O=C(Nc1ccc(OC(F)(F)F)cc1)N1CCN(Cc2ccc3c(c2)OCO3)CC1 [CBK074754]
The viability at 28.5 h, 10 µM of the first is lower: 89% for the first, 99.5% for the second.

Going from `O=C(c1cc(C(F)(F)F)cc(C(F)(F)F)c1)N1CCN(Cc2ccc3c(c2)OCO3)CC1` [CBK074756] to `O=C(O)CC(CC(=O)N1CCN(Cc2ccc3c(c2)OCO3)CC1)c1ccccc1` (stereo not drawn) [CBK074769], the viability at 28.5 h, 10 µM falls from 98.2% to 96%.

Going from `COc1cc(OCc2ccccc2)ccc1CN1CCN(Cc2ccc3c(c2)OCO3)CC1` [CBK074768] to `OC(COCc1ccc2c(c1)OCO2)CN1CCN(C(c2ccccc2)c2ccccc2)CC1` (stereo not drawn) [CBK074850C], the viability at 28.5 h, 10 µM falls from 97.9% to 83.2%.

Going from `c1ccc(CN2CCN(Cc3c[nH]c(-c4ccccc4)n3)CC2)cc1` [CBK074775] to `OC(COc1ccccc1)CN1CCN(Cc2ccccc2)CC1` (stereo not drawn) [CBK074852C], the viability at 28.5 h, 10 µM rises from 84.6% to 93%.

First: O=C(CN1CCN(C(=O)C2COc3ccccc3O2)CC1)Nc1ccc2c(c1)OCCO2 (stereo not drawn) [CBK074777]
Second: O=C(CN1CCN(Cc2ccccc2)CC1)Nc1ccccc1Oc1ccccc1 [CBK074782]
The viability at 28.5 h, 10 µM of the first is higher: 111% for the first, 90.2% for the second.

Compared with `O=C(CCN1CCN(C(c2ccccc2)c2ccccc2)CC1)c1ccccc1` [CBK074788], `OC(COCc1ccc(Cl)cc1)CN1CCN(C(c2ccccc2)c2ccccc2)CC1` (stereo not drawn) [CBK074857C] is lower in viability at 28.5 h, 10 µM: 111% for the first, 86.3% for the second.

First: O=C(Nc1ccc(OCc2ccccc2)cc1)OCC1CN(Cc2ccccc2)CCO1 (stereo not drawn) [CBK074792]
Second: CC(CN1CCN(Cc2ccccc2)CC1)N(C(=O)c1ccoc1)c1ccccn1 (stereo not drawn) [CBK074861C]
The viability at 28.5 h, 10 µM of the first is higher: 102% for the first, 92.1% for the second.

Going from `O=C1c2ccccc2C(=O)N1CCN1CCN(Cc2ccccc2)CC1` [CBK074813] to `COc1ccccc1N1CCN(CCCCNS(=O)(=O)c2ccc(Cl)c(Cl)c2)CC1` [CBK074837], the viability at 28.5 h, 10 µM falls from 110% to 97.8%.

Going from `Nc1ccccc1SC(CC(=O)c1ccccc1)c1ccc2c(c1)OCO2` (stereo not drawn) [CBK074823] to `COc1ccc(C(NC(=O)[C@H]2CCCN2C(=O)NCc2ccccc2C)c2ccccc2C)cn1` (stereo partly drawn) [CBK075051], the viability at 28.5 h, 10 µM rises from 80.2% to 90.9%.

Compared with `C=C(C)c1cccc(C(C)(C)NC(=O)N2CCC(C(=O)NC(c3ccc(OC)nc3)c3ccccc3C)CC2)c1` (stereo not drawn) [CBK074871], `COc1ccc(C(NC(=O)[C@H]2CCCN2C(=O)Cc2cccs2)c2ccccc2C)cn1` (stereo partly drawn) [CBK075053] is lower in viability at 28.5 h, 10 µM: 92.2% for the first, 87% for the second.

First: Cc1ccc(-n2c(O)nnc2-c2ccc(Cl)c(Cl)c2)cc1 [CBK074887]
Second: Oc1nnc(-c2ccc(Cl)c(Cl)c2)n1C1CCCCC1 [CBK074888]
The viability at 28.5 h, 10 µM of the first is lower: 94.5% for the first, 97.9% for the second.

Going from `COC(=O)CCC(=O)N1CCc2c([nH]c3ccccc23)C12CCN(CCCc1ccccc1OC)C2` (stereo not drawn) [CBK074952] to `COc1ccc([C@]23CN(C)C[C@H]2CCN(C(=O)c2cccc(Br)c2)C3)cc1OC` [CBK075111T], the viability at 28.5 h, 10 µM rises from 93.9% to 96.7%.

Going from `Cn1c(-c2ccc(C(=O)O)cc2)cc2oc(-c3ccccc3)nc2c1=O` [CBK074957] to `CCCc1[nH]nc(O)c1Cc1ccccc1-c1ccccc1` [CBK075034], the viability at 28.5 h, 10 µM falls from 98% to 97.2%.

Compared with `CSc1nnc(-c2ccccc2[N+](=O)[O-])n1CC(C)C` [CBK074959], `CC(C)Cc1[nH]nc(O)c1-c1ccccc1` [CBK075134] is higher in viability at 28.5 h, 10 µM: 98.4% for the first, 103% for the second.

First: O=S(=O)(Nc1cc(OC2CCNCC2)c2occc2c1)c1c(Cl)cccc1Cl [CBK074989C]
Second: COc1ccccc1-c1c(O)n[nH]c1CCC1CCCC1 [CBK075128]
The viability at 28.5 h, 10 µM of the first is lower: 64.3% for the first, 97.5% for the second.

First: CCCc1[nH]nc(O)c1Cc1ccc(Cl)cc1 [CBK075013]
Second: CCCc1[nH]nc(O)c1Cc1ccc(C(C)C)cc1 [CBK075033]
The viability at 28.5 h, 10 µM of the first is lower: 90% for the first, 106% for the second.

Compared with `CCCc1[nH]nc(O)c1Cc1ccc(F)cc1F` [CBK075015], `CCCc1[nH]nc(O)c1Cc1cc(C(F)(F)F)ccc1Cl` [CBK075032] is higher in viability at 28.5 h, 10 µM: 85.7% for the first, 96.9% for the second.

Compared with `CCCc1[nH]nc(O)c1Cc1ccc(C(C)(C)C)cc1` [CBK075028], `CCCc1[nH]nc(O)c1CCc1ccccc1F` [CBK075080] is higher in viability at 28.5 h, 10 µM: 79.5% for the first, 88.5% for the second.

First: CCCc1[nH]nc(O)c1Cc1c(F)cccc1[N+](=O)[O-] [CBK075029]
Second: CCCc1[nH]nc(O)c1CCc1cccc(OC)c1OC [CBK075078]
The viability at 28.5 h, 10 µM of the first is lower: 89.5% for the first, 97% for the second.

Going from `CC(C)(C)c1nn(CC2CCCCC2)c(=N)s1` [CBK075042] to `CC(C)(C)c1nnc(NCC2CCCCC2)s1` [CBK075043], the viability at 28.5 h, 10 µM rises from 96.2% to 101%.

Compared with `CCc1nnc(NCC2CCCCC2)s1` [CBK075044], `CCCCNC(=S)N1CC[C@@H]2CN(C)C[C@]2(c2ccc(OC)c(OC)c2)C1` [CBK075101T] is higher in viability at 28.5 h, 10 µM: 88.1% for the first, 100% for the second.

Going from `CCCc1[nH]nc(O)c1CCc1ccccc1C(F)(F)F` [CBK075081] to `CCCc1[nH]nc(O)c1-c1ccc(OC)cc1` [CBK075135], the viability at 28.5 h, 10 µM rises from 93.9% to 96.1%.

Work on `C=CCN1C(=O)C2(CC(=O)N(C)C2=O)c2ccccc21` (stereo not drawn) [CBK075137] yielded a viability at 28.5 h, 10 µM of 93.6%.
